Results taken from US9096615B2, “Bridged bicyclic amino thiazine dioxide compounds as inhibitors of beta-secretase and methods of use thereof” (AMGEN INC., priority 2013, dated 2015).

Experiments:
BACE1 = BACE1 (Homo sapiens, UniProt P56817); assay: In vitro enzymatic BACE FRET assay; format: biochemical; details: average IC50; read-out: BACE1 Enzyme assay IC50
How it was run: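 BACE (0.2 nM) pre-incubated 1 h with serially diluted inhibitor in 0.05 M acetate pH 4.2, 10% DMSO, 100 uM genapol; 50 nM FRET peptide substrate added, 1 h incubation. Stopped with Tris to neutral pH; fluorescence read (ex 488, […]).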

[1] = tested on: Aβ40 in conditioned medium of cells stably expressing Amyloid Precursor Protein (APP); assay: In vitro BACE cell-based assay (HEK cell assay, Aβ40 sandwich ELISA); details: Homo sapiens, HEK293; average IC50; read-out: BACE1 cell assay IC50
How it was run: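 APP-stable cells were cultured 24 h at 37 °C, then given compound as 10-point dose-response (top 100 μM or 10 μM; 0.1% DMSO final) for 24 h. Aβ40 in conditioned medium was measured by sandwich ELISA (pAb40 capture, biotinylated 6E10 detection, Eu time-resolved fluorescence). IC50 from percent inhibition versus concentration.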

human Bace2 protein = target: T1, human Bace2 protein (Homo sapiens, UniProt Q9Y5Z0); assay: In vitro enzymatic BACE2 FRET assay; format: biochemical; details: average IC50; read-out: BACE2 Enzyme assay IC50
T1 construct: V5 (C); 6-His (C)
T1 sequence (Q9Y5Z0 63-518): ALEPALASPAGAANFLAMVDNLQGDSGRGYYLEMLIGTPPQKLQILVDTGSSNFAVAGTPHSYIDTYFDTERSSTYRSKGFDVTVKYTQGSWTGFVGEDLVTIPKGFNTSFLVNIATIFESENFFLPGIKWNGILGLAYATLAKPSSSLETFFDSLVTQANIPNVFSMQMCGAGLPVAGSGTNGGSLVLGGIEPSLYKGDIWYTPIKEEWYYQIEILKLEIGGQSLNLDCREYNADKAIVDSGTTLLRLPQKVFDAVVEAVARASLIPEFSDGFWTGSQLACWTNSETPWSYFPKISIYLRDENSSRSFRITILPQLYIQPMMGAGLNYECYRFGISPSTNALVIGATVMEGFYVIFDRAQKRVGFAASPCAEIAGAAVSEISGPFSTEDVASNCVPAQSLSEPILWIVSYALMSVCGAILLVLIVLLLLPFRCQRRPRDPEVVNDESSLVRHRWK
Procedure: In Vitro Enzymatic BACE2 FRET (Fluorescence Resonance Energy Transfer) Assay
Enzyme Assay Data in the Table 3
The assay buffer used in this screen is 0.05 M acetate, pH 4.2, 10% DMSO final, 100 uM genapol (which is a nonionic detergent, below its Critical Micelle Concentration). The Beta Secretase2 enzyme (human Bace2 protein with C-terminal V5 and 6-His tag; 0.2 nM) is pre-incubated for one hour with inhibitors, typically in about 1 uL of DMSO according to a serial dilution, are added thereto. This assay is effectively started by the addition of FRET substrate (50 nM) and the combination is incubated for one hour. Final assay concentration of about 0.64 nM. The FRET assay is terminated with by addition of Tris buffer, which raises the pH to neutrality, and the fluorescence is determined. The FRET substrate is a peptide with commercially available fluorophore and quencher, on opposite sides of the BACE cleavage site. Proteolytic cleavage of the FRET substrate releases quenching of fluorescence (excitation 488 nm and […]).

Cathepsin D (Cat D) = target: T2, Cathepsin D (Cat D) (Homo sapiens, UniProt P07339); assay: In vitro enzymatic Cathepsin D (Cat D) FRET assay; format: biochemical; details: average IC50; first procedure; read-out: CatD IC50
T2 construct: made in house; host or cells: CHO cells
T2 sequence (P07339 65-412, species assumed): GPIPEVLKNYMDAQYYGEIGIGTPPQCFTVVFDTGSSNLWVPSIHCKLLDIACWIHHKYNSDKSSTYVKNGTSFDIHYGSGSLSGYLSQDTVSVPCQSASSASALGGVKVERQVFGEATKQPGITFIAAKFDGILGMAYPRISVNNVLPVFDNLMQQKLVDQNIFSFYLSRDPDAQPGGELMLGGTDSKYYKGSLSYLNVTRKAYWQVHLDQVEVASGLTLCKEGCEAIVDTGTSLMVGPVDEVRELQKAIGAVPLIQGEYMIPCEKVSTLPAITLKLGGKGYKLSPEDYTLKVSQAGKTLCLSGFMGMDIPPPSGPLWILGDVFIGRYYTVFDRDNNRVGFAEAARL
How it was run: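 Recombinant human Cat D expressed in CHO cells, 9 nM, pre-incubated 1 h with inhibitor in 0.05 M citrate pH 3.5, 10% DMSO, 5 mM CHAPS. Reaction started with 20 nM FRET peptide substrate, run 1 h, stopped with Tris to neutral pH; fluorescence read at ex 500/em 580 nm.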

BACE1, sequence (P56817 46-501, species assumed): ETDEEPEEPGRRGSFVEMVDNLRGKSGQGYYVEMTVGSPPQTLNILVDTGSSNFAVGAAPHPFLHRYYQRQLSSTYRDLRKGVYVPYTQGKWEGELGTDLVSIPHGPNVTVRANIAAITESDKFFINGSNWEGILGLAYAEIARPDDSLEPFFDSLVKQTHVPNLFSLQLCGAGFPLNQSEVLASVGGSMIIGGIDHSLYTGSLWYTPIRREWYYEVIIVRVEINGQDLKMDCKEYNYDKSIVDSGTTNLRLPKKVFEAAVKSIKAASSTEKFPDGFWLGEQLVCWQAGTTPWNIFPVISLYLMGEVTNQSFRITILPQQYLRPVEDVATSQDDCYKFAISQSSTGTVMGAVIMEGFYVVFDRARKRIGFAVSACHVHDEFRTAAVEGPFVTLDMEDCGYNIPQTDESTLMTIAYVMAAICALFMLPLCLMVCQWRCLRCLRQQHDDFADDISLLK

Structure (SMILES) | IC50 (BACE1) | IC50 [1] | IC50 (human Bace2 protein) | IC50 (Cathepsin D (Cat D))
Cc1cc(Cl)cnc1C(=O)Nc1ccc(F)c([C@@]2(C)N=C(N)[C@]3(CF)CC[C@H]2S3(=O)=O)c1 [Example 89, N-(3-((1R,2R,5S)-4-amino-5-(fluoromethyl)-2-methyl-8,8-dioxido-8-thia-3-azabicyclo[3.2.1]oct-3-en-2-yl)-4-fluorophenyl)-5-chloro-3-methyl-2-pyridinecarboxamide] | 0.016 µM | 0.053 µM | 0.006 µM | 1550 µM
CC#C[C@@H](C)Oc1cnc(C(=O)Nc2ccc(F)c([C@@]3(C)N=C(N)[C@@]4(C)CC[C@@H]3S4(=O)=O)c2)cn1 [Example 70, N-(3-((1S,2R,5R)-4-amino-2,5-dimethyl-8,8-dioxido-8-thia-3-azabicyclo[3.2.1]oct-3-en-2-yl)-4-fluorophenyl)-5-(((1R)-1-methyl-2-butyn-1-yl)oxy)-2-pyrazinecarboxamide] | 0.014 µM | 0.007 µM | 0.05 µM | > 400 µM
C[C@]1(c2cc(Nc3ncnc4cc(OCC5CC5)cnc34)ccc2F)N=C(N)[C@@]2(C)CC[C@@H]1S2(=O)=O [Example 139, N-(3-((1S,2R,5R)-4-amino-2,5-dimethyl-8,8-dioxido-8-thia-3-azabicyclo[3.2.1]oct-3-en-2-yl)-4-fluorophenyl)-7-(cyclopropylmethoxy)pyrido[3,2-d]pyrimidin-4-amine] | 0.005 µM | 0.005 µM | 0.067 µM | 1280 µM
C#C[C@H](C)Oc1cnc(C(=O)Nc2ccc(F)c([C@@]3(C)N=C(N)[C@@]4(CF)CC[C@@H]3S4(=O)=O)c2)cn1 [Example 45, N-(3-((1S,2R,5R)-4-amino-5-(fluoromethyl)-2-methyl-8,8-dioxido-8-thia-3-azabicyclo[3.2.1]oct-3-en-2-yl)-4-fluorophenyl)-5-(((1S)-1-methyl-2-propyn-1-yl)oxy)-2-pyrazinecarboxamide] | 0.003 µM | 0.003 µM | 0.019 µM | 596 µM

The remaining compounds from weak to strong by IC50 (BACE1), led by results:

IC50 (BACE1) | IC50 [1] | IC50 (human Bace2 protein) | IC50 (Cathepsin D (Cat D)) | Structure (SMILES)
0.003 µM | 0.038 µM | 0.002 µM | > 14.8 µM | C[C@]1(c2cc(Nc3ncc(F)c4cc(C#N)cnc34)ccc2F)N=C(N)[C@@]2(CF)CC[C@@H]1S2(=O)=O [Example 53, 8-((3-((1S,2R,5R)-4-amino-5-(fluoromethyl)-2-methyl-8,8-dioxido-8-thia-3-azabicyclo[3.2.1]oct-3-en-2-yl)-4-fluorophenyl)amino)-5-fluoro-1,7-naphthyridine-3-carbonitrile]
0.003 µM | 0.002 µM | 0.321 µM | 1180 µM | CC#CCOc1cnc2c(Nc3ccc(F)c([C@@]4(C)N=C(N)[C@]5(C)CC[C@H]4S5(=O)=O)c3)nccc2n1 [Example 63, N-(3-((1R,2R,5S)-4-amino-2,5-dimethyl-8,8-dioxido-8-thia-3-azabicyclo[3.2.1]oct-3-en-2-yl)-4-fluorophenyl)-2-(2-butyn-1-yloxy)pyrido[3,4-b]pyrazin-5-amine]
0.002 µM | 0.09 µM | 0.002 µM | 755 µM | C[C@]1(c2cc(Nc3ncc(F)c4cc(Cl)cnc34)ccc2F)N=C(N)[C@@]2(CF)CC[C@@H]1S2(=O)=O [Example 54, N-(3-((1S,2R,5R)-4-amino-5-(fluoromethyl)-2-methyl-8,8-dioxido-8-thia-3-azabicyclo[3.2.1]oct-3-en-2-yl)-4-fluorophenyl)-3-chloro-5-fluoro-1,7-naphthyridin-8-amine]
0.001 µM | 0.005 µM | 0.009 µM | 1000 µM | C#CCOc1cnc2c(Nc3ccc(F)c([C@@]4(C)N=C(N)[C@@]5(CF)CC[C@@H]4S5(=O)=O)c3)nccc2n1 [Example 46, N-(3-((1S,2R,5R)-4-amino-5-(fluoromethyl)-2-methyl-8,8-dioxido-8-thia-3-azabicyclo[3.2.1]oct-3-en-2-yl)-4-fluorophenyl)-2-(2-propyn-1-yloxy)pyrido[3,4-b]pyrazin-5-amine]
